Experimental data as given in patent US9976183B2, “Biomarkers for cancers responsive to modulators of HEC1 activity” (TAIVEX THERAPEUTICS CORPORATION, priority 2011, dated 2018).

Assays:
Assay type in all cases: cell-based
[1] = tested on: A549; test: Drug sensitivity, MTS cell viability assay (GI50); settings: Homo sapiens, A549, 96 hours
Experimental: (§1) Drug sensitivity: Cell lines were screened for drug sensitivity by treatment with specified drugs 24 hours after seeding in appropriate seeding numbers into 96 well plates containing low glucose DME with 10% FBS. The drug was added to the plate in triplicate wells, and the cells are incubated in drug treated medium for 96 hours before cell viability was determined by MTS assay using CellTiter 96® Aqueous non-radioactive cell proliferation assay system (Promega, Madison, Wis. 53711 USA). The MTS assay was performed according to the manufacturer's instructions. Optical density was measured using a Bio-Tek 340 spectrophotometer (Bio-Tek, Winooski, Vt. 05404) and optical readings were then processed in Excel (Microsoft, Redmond, Wash. 98052-7329) and GraphPad Prism 5 linear regression software (GraphPad Software, La Jolla, Calif. 92037 USA) to determine concentration-response curves for calculating relative GI50s. […] The % growth inhibition of the test drug on cells were calculated as: [1−(Test Value)/(Control Value)]×100; these values were used to plot concentration-response curves, and then analyzed with linear regression software.

[2] = tested on: BT474; test: Drug sensitivity, MTS cell viability assay (GI50); settings: Homo sapiens, BT-474, BT474, 96 hours
Experimental: as §1

[3] = tested on: COLO205; test: Drug sensitivity, MTS cell viability assay (GI50); settings: Homo sapiens, COLO 205, COLO205, 96 hours
Experimental: as §1

[4] = tested on: HCC1954; test: Drug sensitivity, MTS cell viability assay (GI50); settings: Homo sapiens, HCC1954, 96 hours
Experimental: as §1

[5] = tested on: HCT116; test: Drug sensitivity, MTS cell viability assay (GI50); settings: Homo sapiens, HCT-116, HCT116, 96 hours
Experimental: as §1

[6] = tested on: HeLa; test: Drug sensitivity, MTS cell viability assay (GI50); settings: Homo sapiens, 96 hours
Experimental: as §1

[7] = tested on: Hep3B; test: Drug sensitivity, MTS cell viability assay (GI50)
Experimental: as §1

[8] = tested on: HepG2; test: Drug sensitivity, MTS cell viability assay (GI50); settings: Homo sapiens; HepG2, 96 hours, MTS
Experimental: as §1

[9] = tested on: Hs578T; test: Drug sensitivity, MTS cell viability assay (GI50); settings: Homo sapiens, Hs-578T, 96 hours
Experimental: as §1

[10] = tested on: KG-1; test: Drug sensitivity, MTS cell viability assay (GI50); settings: Homo sapiens, KG-1, 96 hours
Experimental: as §1

[11] = tested on: MCF7; test: Drug sensitivity, MTS cell viability assay (GI50); settings: Homo sapiens, MCF7, 96 hours
Experimental: as §1

[12] = tested on: MDA-MB-361; test: Drug sensitivity, MTS cell viability assay (GI50); settings: Homo sapiens, MDA-MB-361, 96 hours
Experimental: as §1

[13] = tested on: MDA-MB-453; test: Drug sensitivity, MTS cell viability assay (GI50); settings: Homo sapiens, MDA-MB-453, 96 hours
Experimental: as §1

[14] = tested on: MOLM-13; test: Drug sensitivity, MTS cell viability assay (GI50); settings: Homo sapiens, MOLM-13, 96 hours
Experimental: as §1

[15] = tested on: MOLT-4; test: Drug sensitivity, MTS cell viability assay (GI50); settings: Homo sapiens, MOLT-4, 96 hours
Experimental: as §1

[16] = tested on: MV4-11; test: Drug sensitivity, MTS cell viability assay (GI50); settings: Homo sapiens, MV4-11, 96 hours
Experimental: as §1

[17] = tested on: N87; test: Drug sensitivity, MTS cell viability assay (GI50); settings: N87, 96 hours
Experimental: as §1

[18] = tested on: NCI-H520; test: Drug sensitivity, MTS cell viability assay (GI50); settings: Homo sapiens, NCI-H520, 96 hours
Experimental: as §1

[19] = tested on: PC3; test: Drug sensitivity, MTS cell viability assay (GI50); settings: Homo sapiens, PC-3, PC3, 96 hours
Experimental: as §1

[20] = tested on: PLC/PRF/5; test: Drug sensitivity, MTS cell viability assay (GI50); settings: Homo sapiens, PLC/PRF/5, 96 hours
Experimental: as §1

[21] = tested on: RPMI8226; test: Drug sensitivity, MTS cell viability assay (GI50); settings: Homo sapiens, RPMI-8226, RPMI8226, 96 hours
Experimental: as §1

[22] = tested on: RS4:11; test: Drug sensitivity, MTS cell viability assay (GI50); settings: Homo sapiens, RS4:11, 96 hours
Experimental: as §1

[23] = tested on: T47D; test: Drug sensitivity, MTS cell viability assay (GI50); settings: Homo sapiens, 96 hours
Experimental: as §1

[24] = tested on: U-937; test: Drug sensitivity, MTS cell viability assay (GI50); settings: Homo sapiens, U-937, 96 hours
Experimental: as §1

[25] = tested on: U2OS; test: Drug sensitivity, MTS cell viability assay (GI50); settings: Homo sapiens, 96 hours
Experimental: as §1

[26] = tested on: ZR-75-1; test: Drug sensitivity, MTS cell viability assay (GI50); settings: Homo sapiens, ZR-75-1, 96 hours
Experimental: as §1

[27] = tested on: ZR-75-30; test: Drug sensitivity, MTS cell viability assay (GI50); settings: Homo sapiens, ZR-75-30, 96 hours
Experimental: as §1

[28] = tested on: MEX-SA/Dx5; test: Drug sensitivity, MTS assay, drug resistant cell line; settings: MEX-SA/Dx5, multi-drug resistant uterine sarcoma
Experimental: as §1

[29] = tested on: apoptotic caspases in drug-responsive cells (HeLa); test: Immunoblot of apoptotic and anti-apoptotic markers; settings: immunoblot (FIG. 5B, FIG. 5D)
Experimental: (§2) Immunoblots: Cell lysates were by incubation of cells in radioimmunoprecipitation assay (RIPA) buffer (50 mM Tris-HCl, pH7.4, 150 mM NaCl, 1% NP40, 0.25% DOC, 0.1% SDS, 1 mM NaVO4, 1 mM EDTA, 1 ug/ml leupeptin, 1 μg/ml pepstatin) or 2.5× sample buffer (50 mM Tris-HCl, pH6.8, 1% SDS, 2.5% BME, 7.5% Glycerol, Bromophenol blue). Tissue samples were immersed in RIPA buffer, disrupted with a homogenizer, and centrifuged to clarify. Samples were then subjected to SDS-PAGE, blotted onto immunoblotting membranes, and incubated with primary antibodies in 3% BSA-TBST. Horseradish peroxidase—conjugated secondary antibodies were used for protein detection by enhanced chemiluminescence (Millipore, Billerica, Mass. 01821 USA). The following antibodies were used for Western blotting: anti-Rb monoclonal antibody 1F8 (Abcam, Cambridge, Mass. 02139-1517 USA); anti-p53 monoclonal antibody (Santa Cruz Biotechnology, Santa Cruz, Calif. 95060 USA); anti-β-actin monoclonal antibody AC-15 (Sigma Aldrich, St. Louis, Mo., USA).

[30] = tested on: apoptotic caspases in resistant cell line (A549); test: Immunoblot of apoptotic and anti-apoptotic markers; settings: A549, immunoblot (FIG. 5C, FIG. 5D)
Experimental: as §2

Structure (SMILES): COc1ccc(Oc2cc(C)c(-c3csc(NC(=O)c4ccncc4)n3)c(C)c2)cc1 [compound 101001, N-(4-(4-(4-methoxyphenoxy)-2,6-dimethylphenyl)thiazol-2-yl)isonicotinamide]
- GI50 [1]: > 10000 nM
- GI50 [2]: 85.7 nM
- GI50 [3]: 40.2 nM
- GI50 [4]: > 10000 nM
- GI50 [5]: 38.9 nM
- GI50 [6]: 15.8 nM
- GI50 ([7]; 96 hours, listed as 110001): 104 nM
- GI50 ([7]; Homo sapiens, 96 h): 96.1 nM
- GI50 [8]: 273 nM
- GI50 [9]: 143 nM
- GI50 [10]: 28.9 nM
- GI50 [11]: 63.7 nM
- GI50 [12]: > 10000 nM
- GI50 [13]: 23.6 nM
- GI50 [14]: 315 nM
- GI50 [15]: > 30000 nM
- GI50 [16]: 231 nM
- GI50 [17]: > 30000 nM
- GI50 [18]: 67.9 nM
- GI50 [19]: 60 nM
- GI50 [20]: 91.6 nM
- GI50 [21]: 27.2 nM
- GI50 [22]: 254 nM
- GI50 [23]: 17.1 nM
- GI50 [24]: 22 nM
- GI50 [25]: 139 nM
- GI50 [26]: 79.6 nM
- GI50 [27]: 76.8 nM
- GI50 [28]: 34.9 nM
- activation of apoptotic caspases [29]: activation of apoptotic caspases
- activation of apoptotic caspases [30]: did not show a similar response
